This assay addresses T1, human PAH with the R408W mutation (Homo sapiens, UniProt P00439, R408W).
T1 construct: expressed in transfected cells
T1 sequence (P00439 1-452 R408W): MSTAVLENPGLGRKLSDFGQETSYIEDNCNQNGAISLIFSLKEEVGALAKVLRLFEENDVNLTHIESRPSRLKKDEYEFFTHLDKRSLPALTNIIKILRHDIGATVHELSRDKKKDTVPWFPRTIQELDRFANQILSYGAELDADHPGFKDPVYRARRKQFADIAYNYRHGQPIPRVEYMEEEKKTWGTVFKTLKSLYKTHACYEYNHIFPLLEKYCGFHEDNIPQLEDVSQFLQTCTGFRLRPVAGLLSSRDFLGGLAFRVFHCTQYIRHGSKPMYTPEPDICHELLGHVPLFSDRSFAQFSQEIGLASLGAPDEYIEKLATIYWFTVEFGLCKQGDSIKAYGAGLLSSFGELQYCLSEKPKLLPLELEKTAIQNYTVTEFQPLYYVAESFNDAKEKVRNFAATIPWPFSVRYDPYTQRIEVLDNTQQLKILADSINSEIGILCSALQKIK
The assay can be described thus: Cell Based Phenylalanine Flux Assay. The note with it: A375 cells expressing human R408W PAH, 13C-Tyrosine by LC-MS, average where tested multiple times, read-out: AC50.

Structures are written as SMILES. Read-outs that look alike come from different tables or passages of the source. Bounds are passed on as bounds.

The AC50 is the concentration giving half of the maximal activity seen.

For the compound `O=C(c1nccs1)N1CCc2[nH]cnc2C1c1nc2ccc(Cl)cc2[nH]1` (centres unmarked), for the setting “24 hrs with compound”, the half-maximal activity concentration (AC50) fell in the range of 1 to 5 µM.
On the same count and under the same terms, next, `O=C(c1nc2c(F)cccc2s1)N1CCc2[nH]cnc2[C@H]1c1nc2ccccc2[nH]1` [(S)-(4-(1H-benzo[d]imidazol-2-yl)-1,4,6,7-tetrahydro-5H-imidazo[4,5-c]pyridin-5-yl)(4-fluorobenzo[d]thiazol-2-yl)methanone]: 1 to 5 µM.
Still for that read-out and setting: for `O=C(c1nnc(-c2ccccn2)o1)N1CCc2[nH]cnc2C1c1nc2ccccc2[nH]1` (centres unmarked) the value was 1 to 5 µM; for `O=C(CCc1nccs1)N1CCc2nc[nH]c2C1c1nc2cc(Br)ccc2s1` (centres unmarked), 1 to 5 µM.
For the compound `Cc1cccc2sc([C@H]3c4nc[nH]c4CCN3C(=O)c3ncnn3C)nc12` [Example 2016, (R)-(1-methyl-1H-1,2,4-triazol-5-yl)(4-(4-methylbenzo[d]thiazol-2-yl)-6,7-dihydro-1H-imidazo[4,5-c]pyridin-5(4H)-yl)methanone], the AC50 (24 hrs compound incubation) is > 5 µM.
As to `O=C(c1cnn2cccc(F)c12)N1CCc2[nH]cnc2C1c1nc2ccc(Br)cc2[nH]1` (centres unmarked), the concentration at half-maximal activity (AC50) (24 hrs with compound) was > 5 µM.
Still for that read-out and setting: next, `COc1cccc(CCC(=O)N2CCc3[nH]cnc3C2c2nc3ccccc3[nH]2)c1` (centres unmarked): 1 to 5 µM; `O=C(CCc1nccs1)N1CCc2nc[nH]c2C1c1nc2cc(Cl)ccc2s1` (centres unmarked): 1 to 5 µM.
Consider `Cc1nc(-c2cnn(CC(F)(F)F)c2)oc1C(=O)N1CCc2[nH]cnc2[C@@H]1c1nc2ccccc2s1` [Example 1414, (R)-(4-(benzo[d]thiazol-2-yl)-6,7-dihydro-1H-imidazo[4,5-c]pyridin-5(4H)-yl)(4-methyl-2-(1-(2,2,2-trifluoroethyl)-1H-pyrazol-4-yl)oxazol-5-yl)methanone], for which the concentration at half-maximal activity (AC50) (24 hrs compound incubation) was in the range of 1 to 5 µM.
Turning to `O=C(c1cnsc1)N1CCc2[nH]cnc2[C@H]1c1nc2ccccc2[nH]1` [(S)-(4-(1H-benzo[d]imidazol-2-yl)-1,4,6,7-tetrahydro-5H-imidazo[4,5-c]pyridin-5-yl)(isothiazol-4-yl)methanone], under “24 hrs with compound”, the half-maximal activity concentration (AC50) was in the range of 1 to 5 µM.
The same measure, in the same setting: next, `O=C(c1cnn2cc(Cl)ccc12)N1CCc2[nH]cnc2[C@H]1c1nc2ccc(Br)cc2[nH]1` (single isomer, unassigned): 1 to 5 µM.
Turning to `O=C(c1nnc(-c2cnn(CC(F)(F)F)c2)o1)N1CCc2[nH]cnc2[C@H]1c1nc2ccccc2s1` [Example 1793, [(4S)-4-(1,3-benzothiazol-2-yl)-1,4,6,7-tetrahydroimidazo[4,5-c]pyridin-5-yl]-[5-[1-(2,2,2-trifluoroethyl)pyrazol-4-yl]-1,3,4-oxadiazol-2-yl]methanone], the AC50 (24 hrs compound incubation) was < 0.5 µM.
Same read-out and setting: next, `O=C(c1nnc(NC2CC2)o1)N1CCc2[nH]cnc2[C@H]1c1nc2ccccc2s1` [Example 1593]: 0.5 to 1 µM; `O=C(c1oc(CCC2CC2)nc1C(F)(F)F)N1CCc2[nH]cnc2[C@H]1c1nc2c(F)cccc2s1` [Example 1625]: < 0.5 µM; `Cn1cc(C(=O)N2CCc3[nH]cnc3[C@H]2c2nc3c(F)cccc3s2)c(Cl)n1` [Example 1644]: < 0.5 µM.
In the case of `O=C(CCc1cscn1)N1CCc2[nH]cnc2[C@H]1c1nc2ccccc2[nH]1` [(S)-1-(4-(1H-benzo[d]imidazol-2-yl)-1,4,6,7-tetrahydro-5H-imidazo[4,5-c]pyridin-5-yl)-3-(thiazol-4-yl)propan-1-one], for the setting “24 hrs with compound”, the concentration at half-maximal activity (AC50) is 1 to 5 µM.
On the same count and under the same terms, for `O=C(C1CN(c2ccccn2)C1)N1CCc2[nH]cnc2C1c1nc2ccccc2s1` (centres unmarked) the value was 1 to 5 µM; for `O=C(c1ncco1)N1CCc2[nH]cnc2C1c1nc2ccc(F)cc2s1` (centres unmarked), 1 to 5 µM.
For the compound `C[C@@H](O)c1nc(C(F)F)c(C(=O)N2CCc3[nH]cnc3[C@H]2c2nc3ccccc3s2)o1` [Example 2091], under “24 hrs compound incubation”, the AC50 is < 0.5 µM.
Turning to `O=C(c1nnc(CCN2CC(F)C2)o1)N1CCc2[nH]cnc2C1c1nc2ccccc2s1` (centres unmarked), for the setting “24 hrs with compound”, the concentration at half-maximal activity (AC50) fell in the range of 1 to 5 µM.
On to `Cc1ccc(-c2nnc(C(=O)N3CCc4[nH]cnc4[C@H]3c3nc4ccccc4s3)o2)nc1` [Example 1880], for which, under “24 hrs compound incubation”, the AC50 was < 0.5 µM.
Still for that read-out and setting: next, `Cn1nc(Cl)cc1C(=O)N1CCc2[nH]cnc2[C@H]1c1nc2ccccc2s1` [Example 1923]: < 0.5 µM; `Cc1cccc2nc([C@H]3c4nc[nH]c4CCN3C(=O)c3cnco3)sc12` [Example 2180, (R)-(4-(7-methylbenzo[d]thiazol-2-yl)-6,7-dihydro-1H-imidazo[4,5-c]pyridin-5(4H)-yl)(oxazol-5-yl)methanone]: > 5 µM; `CCn1ncnc1C(=O)N1CCc2[nH]cnc2[C@@H]1c1nc2c(F)cccc2s1` [Example 1960, (R)-(1-ethyl-1H-1,2,4-triazol-5-yl)(4-(4-fluorobenzo[d]thiazol-2-yl)-6,7-dihydro-1H-imidazo[4,5-c]pyridin-5(4H)-yl)methanone]: 1 to 5 µM.
Still for that read-out and setting: for `[2H][C@]1(c2nc3ccccc3s2)c2nc[nH]c2CCN1C(=O)c1cnc(-c2cnn(C)c2)s1` [Example 2158, [(4R)-4-(1,3-benzothiazol-2-yl)-4-deuterio-6,7-dihydro-1H-imidazo[4,5-c]pyridin-5-yl]-[2-(1-methylpyrazol-4-yl)thiazol-5-yl]methanone] the value was > 5 µM; for `O=C(CC1CCCC1)N1CCc2[nH]cnc2[C@H]1c1nc2ccccc2[nH]1` [Example 929, (S)-1-(4-(1H-benzo[d]imidazol-2-yl)-6,7-dihydro-1H-imidazo[4,5-c]pyridin-5(4H)-yl)-2-cyclopentylethanone], < 0.5 µM.
The same measure, in the same setting: for `O=C(c1cnn2ccc(Cl)cc12)N1CCc2[nH]cnc2[C@H]1c1nc2c(F)cccc2s1` [Example 1195] the value was < 0.5 µM; for `[2H][C@]1(c2nc3ccccc3s2)c2nc[nH]c2CCN1C(=O)c1ocnc1C` [Example 2160, [(4R)-4-(1,3-benzothiazol-2-yl)-4-deuterio-6,7-dihydro-1H-imidazo[4,5-c]pyridin-5-yl]-(4-methyloxazol-5-yl)methanone], > 5 µM.
On to `Cc1ncoc1CC(=O)N1CCc2[nH]cnc2C1c1nc2ccccc2s1` (centres unmarked), for which the half-maximal activity concentration (AC50) (24 hrs with compound) was in the range of 1 to 5 µM.
Still for that read-out and setting: next, `Cn1ncc(C(=O)N2CCc3[nH]cnc3C2c2nc3ccccc3s2)n1` (centres unmarked): > 5 µM; `O=C(c1ocnc1CO)N1CC2(CC2)c2[nH]cnc2C1c1nc2ccccc2s1` (centres unmarked): 1 to 5 µM.
As to `O=C(c1cnn2cc(Cl)ccc12)N1CCc2[nH]cnc2[C@@H]1c1nc2ccccc2s1` [Example 1064, (R)-(4-(benzo[d]thiazol-2-yl)-6,7-dihydro-1H-imidazo[4,5-c]pyridin-5(4H)-yl)(6-chloropyrazolo[1,5-a]pyridin-3-yl)methanone], the AC50 (24 hrs compound incubation) is > 5 µM.
Take `O=C(c1oc(NC2CC2)nc1C(F)(F)F)N1CCCc2[nH]cnc2[C@H]1c1nc2ccccc2s1` [Example 2127, (S)-(4-(benzo[d]thiazol-2-yl)-7,8-dihydroimidazo[4,5-c]azepin-5(1H,4H,6H)-yl)(2-(cyclopropylamino)-4-(trifluoromethyl)oxazol-5-yl)methanone]: the AC50 (24 hrs compound incubation) fell in the range of 1 to 5 µM.
Consider `O=C(c1cnn2cc(CO)ccc12)N1CCc2[nH]cnc2C1c1nc2ccccc2s1` (centres unmarked), for which the AC50 (24 hrs with compound) is > 5 µM.
For the compound `O=C(C1CC1(F)F)N1CCc2[nH]cnc2[C@@H]1c1nc2ccccc2s1` (single isomer, unassigned) [Example 1285], under “24 hrs compound incubation”, the AC50 was > 5 µM.
Same read-out and setting: next, `CC(C)(O)c1nc(C2CC2)c(C(=O)N2CCc3[nH]cnc3[C@H]2c2nc3ccccc3s2)o1` [Example 1543]: < 0.5 µM.
As to `CC(C)(O)c1cc(C(=O)N2CCc3[nH]cnc3C2c2nc3c(F)cccc3s2)sn1` (centres unmarked), for the setting “24 hrs with compound”, the AC50 was in the range of 1 to 5 µM.
Take `Cc1nc(C(C)(C)F)oc1C(=O)N1CCc2[nH]cnc2[C@@H]1c1nc2ccccc2s1` [Example 1498, (R)-(4-(benzo[d]thiazol-2-yl)-6,7-dihydro-1H-imidazo[4,5-c]pyridin-5(4H)-yl)(2-(2-fluoropropan-2-yl)-4-methyloxazol-5-yl)methanone]: the half-maximal activity concentration (AC50) (24 hrs compound incubation) lay in the range of 1 to 5 µM.
For the compound `O=C(N1CCc2[nH]cnc2[C@H]1c1nc2c(F)cccc2s1)C(F)(F)C1(O)CCC1` [Example 1655, (S)-2,2-difluoro-1-(4-(4-fluorobenzo[d]thiazol-2-yl)-6,7-dihydro-1H-imidazo[4,5-c]pyridin-5(4H)-yl)-2-(1-hydroxycyclobutyl)ethanone], the AC50 (24 hrs compound incubation) was 0.5 to 1 µM.
Still for that read-out and setting: next, `O=C(c1ocnc1-c1ccccn1)N1CCc2[nH]cnc2[C@H]1c1nc2c(F)cccc2s1` [Example 1523, (S)-(4-(4-fluorobenzo[d]thiazol-2-yl)-6,7-dihydro-1H-imidazo[4,5-c]pyridin-5(4H)-yl)(4-(pyridin-2-yl)oxazol-5-yl)methanone]: 0.5 to 1 µM.
For the compound `CNC(=O)N1CC(C(=O)N2CCc3[nH]cnc3C2c2nc3ccccc3s2)C1` (centres unmarked), the half-maximal activity concentration (AC50) (24 hrs with compound) was > 5 µM.
Still for that read-out and setting: for `Cc1nnc(CCC(=O)N2CCc3[nH]cnc3C2c2nc3ccc(Br)cc3[nH]2)s1` (centres unmarked) the value was > 5 µM.
Consider `CC1(C)CCC(c2ncc(C(=O)N3CCc4[nH]cnc4[C@@H]3c3nc4ccccc4s3)s2)CC1` [Example 1354, (R)-(4-(benzo[d]thiazol-2-yl)-6,7-dihydro-1H-imidazo[4,5-c]pyridin-5(4H)-yl)(2-(4,4-dimethylcyclohexyl)thiazol-5-yl)methanone], for which the AC50 (24 hrs compound incubation) was in the range of 1 to 5 µM.
Take `COCCNc1nnc(C(=O)N2CCc3[nH]cnc3[C@@H]2c2nc3ccccc3s2)o1` (single isomer, unassigned): the AC50 (24 hrs with compound) was > 5 µM.
